Experimental findings from patent US11319526B2, “Methods and compositions for making antibodies and antibody derivatives with reduced core fucosylation” (Seagen Inc., priority 2008, dated 2022) are described below.

SMILES strings stand for the structures. Where two headings read alike, the source gives them in different places.

In this assay the test system is antibody core fucosylation in CHO DG44 cell line producing h1F6. Description: Effect of fucose analogs on antibody core fucosylation (h1F6 from CHO DG44 culture). The assay is classed as cell-based, Chinese hamster. The following applies: day 5; for inhibition at 50 µM: 50 μM fucose analog; for Inhibition at 1 mM / inhibition at 1000 µM: 1 mM fucose analog. How it is done:
Media was supplemented with insulin like growth factor (IGF), penicillin, streptomycin and either 1 mM or 50 μM of the fucose analog (prepared as described supra). On day 5 post inoculation, the culture was centrifuged at 13000 RPM for 5 minutes to pellet cells; antibodies were then purified from supernatant.
Antibody purification was performed by applying the conditioned media to protein A resin pre-equilibrated with 1× phosphate buffered saline (PBS), pH 7.4. After washing resin with 20 resin bed volumes of 1×PBS, antibodies were eluted with 5 resin bed volumes of Immunopure IgG elution buffer (Pierce Biotechnology, Rockford, Ill.). A 10% volume of 1M tris pH 8.0 was added to neutralize the eluted fraction.

Where [1] appears, read: Cricetulus griseus, CHO-DG44, 120 h, Table 1, inhibition of core fucosylation of h1F6, read-out: Inhibition at 50 μM.
Setting [2] is: Cricetulus griseus, CHO-DG44, 120 h, Table 1, ND = non-core fucosylated antibody not detected due to poor antibody production or inhibition of cell growth.
The mark [3] stands for this setting: Cricetulus griseus, CHO-DG44, 120 h, Table 2, read-out: Inhibition at 50 μM.
The mark [4] stands for this setting: Cricetulus griseus, CHO-DG44, 120 h, Table 2.
Where [5] appears, read: Table 1, inhibition of core fucosylation of h1F6.
The mark [6] stands for this setting: Table 1, ND = non-core fucosylated antibody not detected due to poor antibody production or inhibition of cell growth.

As usually defined, the inhibition is the change of the read-out against control, counted positive when it falls. The Inhibition is the percentage by which the read-out fell short of the control. A higher Inhibition goes with strong suppression.

As to `CC(=O)OC1C(C)OC(F)C(F)C1OC(C)=O` (stereo not drawn) [1,2-difluoro-1,2-didexoy fucose peracetate], where the note is “Table 2”, the “inhibition at 50 µM” value is on record as greater than 80% and the “Inhibition at 1 mM” value is on record as greater than 80%. Regarding `C#C[C@H](OC(C)=O)[C@H]1OC(OC)[C@@H](OC(C)=O)[C@@H]1OC(C)=O` (stereo partly drawn) [1-methyl-2,3,4-triacetyl alkynyl fucose, (2R,3R,4S)-2-((S)-1-acetoxyprop-2-ynyl)-5-methoxy-tetrahydrofuran-3,4-diyl Diacetate], the inhibition at 50 µM under setting [1] worked out at 68%. Under setting [2], this compound had an inhibition at 1000 µM greater than 80%. As to `CC(=O)OC1O[C@@H](C)[C@@H](OC(C)=O)[C@@H](OC(C)=O)[C@@H]1Cl` (stereo partly drawn) [2-deoxy-2-chlorofucose triacetate, L-2-deoxy-2-chlorofucopyranose-1,3,4-triacetate], the inhibition at 50 µM under setting [3] was found to be 17%. Moreover, under setting [4], the inhibition at 1000 µM was greater than 80%. As to `CC(=O)OC1O[C@@H](C)[C@@H](OC(C)=O)[C@@H](OC(C)=O)[C@@H]1F` (stereo partly drawn) [2-deoxy-2-fluorofucose peracetate, (3S,4R,5R,6S)-3-fluoro-6-methyl-tetrahydro-2H-pyran-2,4,5-triyl Triacetate], the inhibition at 50 µM under setting [3] was greater than 80%. For the same compound, the inhibition at 1000 µM under setting [4] was greater than 80%. In the case of `C[C@H](O)[C@@H](O)[C@@H](O)[C@H](F)C=O` [2-deoxy-2-fluorofucose], under setting [3], the inhibition at 50 µM was greater than 80%. The compound further came in with an inhibition at 1000 µM under setting [4] greater than 80%. Turning to `CC(=O)OC1O[C@@H](COCc2ccccc2)[C@@H](OC(C)=O)[C@@H](OC(C)=O)[C@@H]1OC(C)=O` (stereo partly drawn) [5-Benzyloxy fucose peracetate, (3S,4R,5R,6S)-6-(benzyloxymethyl)tetrahydro-2H-pyran-2,3,4,5-tetrayl tetraacetate], under setting [3], the inhibition at 50 µM came to 0%. Besides, under setting [4], the inhibition at 1000 µM was 75%. On to `CC(=O)OC(C#N)[C@H]1OC(OC(C)=O)[C@@H](OC(C)=O)[C@@H]1OC(C)=O` (stereo partly drawn) [5-cyanoarabinofuranose tetraacetate], for which the inhibition at 50 µM under setting [1] lay within 5 to 10%. The same measure, in the same setting: with `CC(=O)OC1OC(C#N)[C@@H](OC(C)=O)[C@@H](OC(C)=O)[C@@H]1OC(C)=O` (stereo partly drawn) [5-cyanoarabinopyranose tetraacetate] the figure was 20%. `CC(=O)OC1O[C@@H]([C@]2(C)CO2)[C@@H](OC(C)=O)[C@@H](OC(C)=O)[C@@H]1OC(C)=O` (stereo partly drawn) [5-methyloxiran-arabinose tetraacetate, (3S,4R,5S,6R)-6-((S)-2-methyloxiran-2-yl)-tetrahydro-2H-pyran-2,3,4,5-tetrayl tetraacetate]: the inhibition at 50 µM under setting [1] was roughly 0%. Further, the inhibition at 1000 µM under setting [2] lay within 35 to 40%. On to `CC#CC(OC(C)=O)[C@@H](OC(C)=O)[C@@H](OC(C)=O)[C@@H](C=O)OC(C)=O` (stereo partly drawn) [5-propynyl fucose tetraacetate, 5-propynylarabinose tetraacetate], for which the inhibition at 50 µM under setting [1] is 50%. The compound also yielded an inhibition at 1000 µM under setting [2] greater than 80%. As for `C=CC1OC(OC(C)=O)C(OC(C)=O)C(OC(C)=O)C1OC(C)=O` (stereo not drawn) [5-vinyl fucose tetraacetate, 5-ethylenylarabinose tetraacetate], the “inhibition at 50 µM” value under setting [5] is roughly 0%. In addition, the “Inhibition at 1 mM” value under setting [6] was roughly 4%. `CC(=O)OC1O[C@@H](C(F)F)[C@@H](OC(C)=O)[C@@H](OC(C)=O)[C@@H]1OC(C)=O` (stereo partly drawn) [6,6-difluorofucose tetraacetate, (3S,4R,5S,6R)-6-(difluoromethyl)tetrahydro-2H-pyran-2,3,4,5-tetrayl Tetraacetate]: the inhibition at 50 µM under setting [3] was greater than 80%. This compound also returned an inhibition at 1000 µM under setting [4] greater than 80%. With `CC(=O)O[C@H]([C@H](OC(C)=O)[C@H](CCl)OC(C)=O)[C@@H](C=O)OC(C)=O` [6-chloro-fucose tetraacetate, 6-chlorofucose tetraacetate], under setting [1], the inhibition at 50 µM was 20%. This compound came in with an inhibition at 1000 µM under setting [2] of 20 to 30%. For `CC(=O)O[C@H]([C@H](OC(C)=O)[C@H](CC#N)OC(C)=O)[C@@H](C=O)OC(C)=O` [6-cyano fucose tetraacetate, 6-cyanofucose tetraacetate], under setting [1], the inhibition at 50 µM turned out to be 30%. The same compound had an inhibition at 1000 µM under setting [2] greater than 80%. As for `CC(=O)O[C@H]([C@H](OC(C)=O)[C@H](CI)OC(C)=O)[C@@H](C=O)OC(C)=O` [6-iodo-fucose tetraacetate, 6-iodofucose tetraacetate], the inhibition at 50 µM under setting [1] is 3%. The same compound gave an inhibition at 1000 µM under setting [2] of 30%. On to `CC(=O)O[C@@H]1[C@H](C)O[C@H](OC(C)=O)C(F)(F)[C@@H]1OC(C)=O` [(2R,4R,5R,6S)-3,3-difluoro-6-methyl-tetrahydro-2H-pyran-2,4,5-triyl Triacetate], for which the inhibition at 50 µM under setting [3] turned out to be 0%. This compound had an inhibition at 1000 µM under setting [4] of 75%. As to `CC(=O)O[C@@H]1[C@H](C)O[C@@H](OC(C)=O)C(F)(F)[C@@H]1OC(C)=O` [(2S,4R,5R,6S)-3,3-difluoro-6-methyl-tetrahydro-2H-pyran-2,4,5-triyl Triacetate], the inhibition at 50 µM under setting [3] is 0%. For the same compound, testing at 1000 µM under setting [4] gave an inhibition of 64%. For `CC(=O)O[C@H]1C[C@H](OC(C)=O)[C@H](OC(C)=O)[C@H](C)O1` [(2S,4S,5R,6S)-6-methyl-tetrahydro-2H-pyran-2,4,5-triyl Triacetate], in that order: 0% and 36%.

For `C#CC1OC(OC(=O)C(C)(C)C)C(OC(=O)C(C)(C)C)C(OC(=O)C(C)(C)C)C1O` (stereo not drawn) [Alkynyl fucose 1,2,3-(trimethylacetate), 5-ethynylarabinose 1,2,3-(trimethylacetate)], the “inhibition at 50 µM” value under setting [5] is on record as roughly 0%. As to `C#CC1OC(OC(=O)C(C)(C)C)C(O)C(OC(=O)C(C)(C)C)C1O` (stereo not drawn) [Alkynyl fucose di(trimethylacetate), 5-ethynylarabinose 1,3-(trimethylacetate)], the “inhibition at 50 µM” value under setting [5] was greater than 80%. For `C#C[C@@H]1OC(OC(=O)c2cccnc2)[C@@H](OC(=O)c2cccnc2)[C@H](OC(=O)c2cccnc2)[C@@H]1OC(=O)c1cccnc1` (stereo partly drawn) [Alkynyl fucose pemicotinate, (3S,4R,5R,6S)-6-ethynyl-tetrahydro-2H-pyran-2,3,4,5-tetrayl Tetranicotinate], the inhibition at 50 µM under setting [1] was greater than 80%. This compound also came in with an inhibition at 1000 µM under setting [2] greater than 80%. In the case of `C#C[C@@H]1OC(OC(=O)CCOCCOC)[C@@H](OC(=O)CCOCCOC)[C@H](OC(=O)CCOCCOC)[C@@H]1OC(=O)CCOCCOC` (stereo partly drawn) [Alkynyl fucose per-PEG ester, (3S,4R,5R,6S)-6-ethynyl-tetrahydro-2H-pyran-2,3,4,5-tetrayl tetrakis(3-(2-methoxyethoxy)propanoate)], under setting [1], the inhibition at 50 µM is greater than 80%. Under setting [2], the inhibition at 1000 µM was greater than 80%.

With `C#C[C@@H]1OC(OC(=O)C(C)C)[C@@H](OC(=O)C(C)C)[C@H](OC(=O)C(C)C)[C@@H]1OC(=O)C(C)C` (stereo partly drawn) [Alkynyl fucose perisobutanoate, (3S,4R,5R,6S)-6-ethynyl-tetrahydro-2H-pyran-2,3,4,5-tetrayl tetrakis(2-methylpropanoate)], under setting [1], the inhibition at 50 µM is greater than 80%. Further, under setting [2], the inhibition at 1000 µM was greater than 80%.

Turning to `C#C[C@H]1OC(OC(=O)c2ccncc2)[C@@H](OC(=O)c2ccncc2)[C@H](OC(=O)c2ccncc2)[C@@H]1OC(=O)c1ccncc1` (stereo partly drawn) [Alkynyl fucose perisonicotinate, (3S,4R,5R,6R)-6-ethynyl-tetrahydro-2H-pyran-2,3,4,5-tetrayl Tetraisonicotinate], the inhibition at 50 µM under setting [1] is greater than 80%. In addition, the inhibition at 1000 µM under setting [2] is greater than 80%. For `C#CC(OC(=O)CCCCC)[C@@H](OC(=O)CCCCC)[C@@H](OC(=O)CCCCC)[C@@H](C=O)OC(=O)CCCCC` (stereo partly drawn) [Alkynyl fucose tetra-n-hexanoate, 5-ethynylarabinose tetrahexanoate], the inhibition at 50 µM under setting [1] is greater than 80%. Besides, under setting [2], the inhibition at 1000 µM was greater than 80%. As to `C#C[C@@H]1OC(OC(=O)CC)[C@@H](OC(=O)CC)[C@H](OC(=O)CC)[C@@H]1OC(=O)CC` (stereo partly drawn) [Alkynyl fucose tetrapropanonate, 5-ethynylarabinose tetrapropropanoate], the “inhibition at 50 µM” value under setting [5] was greater than 80%. Besides, the “Inhibition at 1 mM” value under setting [6] was greater than 80%.

On to `C#CC(O)[C@@H](O)[C@@H](O)[C@H](O)C=O` (stereo partly drawn) [Alkynyl fucose, 5-ethynylarabinose], for which the inhibition at 50 µM under setting [1] was greater than 80%. As to `C=C=C[C@@H]1OC(OC(C)=O)[C@@H](OC(C)=O)[C@H](OC(C)=O)[C@@H]1OC(C)=O` (stereo partly drawn) [Allene, (3S,4R,5R,6S)-6-(propa-1,2-dienyl)-tetrahydro-2H-pyran-2,3,4,5-tetrayl Tetraacetate], under setting [3], the inhibition at 50 µM is 23%. Also, the inhibition at 1000 µM under setting [4] was 34%.
